Results taken from patent US9210927B2, “Pesticidal compositions and processes related thereto” (Dow AgroSciences LLC, priority 2013, dated 2015).

Experiments:
Format in all cases: in vivo
GPA (Myzus persicae) = test: Bioassays on Green Peach Aphid (GPA), foliar spray on cabbage seedlings; details: 72 h, corrected % control (Abbott), 200 ppm spray on cabbage seedlings, three days, read-out: GPA Rating
Description: Bioassays on Green Peach Aphid (“GPA”) (Myzus persicae) Certain molecules disclosed in this document were tested against GPA using procedures described in the following example. In the reporting of the results, the “GPA Rating Table” was used (See Table Section). Cabbage seedlings grown in 3-inch pots, with 2-3 small (3-5 cm) true leaves, were used as test substrate. The seedlings were infested with 20-50 GPA (wingless adult and nymph stages) one day prior to chemical application. Four pots with individual seedlings were used for each treatment. Test compounds (2 mg) were dissolved in 2 mL of acetone/MeOH (1:1) solvent, forming stock solutions of 1000 ppm test compound. The stock solutions were diluted 5× with 0.025% Tween 20 in H2O to obtain the solution at 200 ppm test compound. A hand-held aspirator-type sprayer was used for spraying a solution to both sides of […] leaves until runoff. Reference plants (solvent check) were sprayed with the diluent only containing 20% by volume of acetone/MeOH (1:1) solvent. Treated plants were held in a holding room for three days at approximately 25° C. and ambient relative humidity (RH) prior to grading. Evaluation was conducted by counting the number of live aphids per plant under a microscope. Percent Control was measured by using Abbott's correction formula (W. S. Abbott, “A Method of Computing the Effectiveness of an Insecticide” J. Econ. Entomol. 18 (1925), pp. 265-267) as follows. Corrected % Control=100*(X−Y)/X • where • X=No. of live aphids on solvent check plants and • Y=No. of live aphids on treated plants The results are indicated in the table entitled “Table 3: Assay Results” (See Table Section).

CEW (Helicoverpa zea) = test: Bioassays on Corn Earworm (CEW), 128-well diet tray assay; details: Helicoverpa zea, 168 h; percent mortality, second instar larvae, 50 μg/cm^2 on artificial diet, five to seven days, 25° C.; read-out: CEW Rating
Summary of the method: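 Second-instar larvae (one to five per well) placed on artificial diet treated with 50 μg/cm^2 compound in 90:10 acetone-water and dried, eight wells per compound. Held 25 °C, 14:10 light-dark, five to seven days; percent mortality scored per well and averaged.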

BAW (Spodoptera exigua) = test: Bioassays on Beet Armyworm (BAW), 128-well diet tray assay; details: Spodoptera exigua, 168 h, read-out: BAW Rating
Summary of the method: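 Second-instar larvae (one to five per well) placed on artificial diet treated with 50 μg/cm^2 compound in 90:10 acetone-water, eight wells per compound. Held covered at 25° C., 14:10 light-dark for five to seven days; percent mortality averaged across wells.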

Structure (SMILES) | pest or weed control at 200 ppm (GPA (Myzus persicae)) | pest or weed control at 50 µg/cm2 (CEW (Helicoverpa zea)) | pest or weed control at 50 µg/cm2 (BAW (Spodoptera exigua))
O=C(CNC(=O)c1ccc(/C=C/C(c2cc(Cl)c(Cl)c(Cl)c2)C(F)(F)F)cc1Cl)NCC(F)(F)F (stereo not drawn) [AC64, (E)-2-Chloro-N-(2-oxo-2-((2,2,2-trifluoroethyl)amino)ethyl)-4-(4,4,4-trifluoro-3-(3,4,5-trichlorophenyl)but-1-en-1-yl)benzamide] | 0 to 80% | 50 to 100% | 50 to 100%
O=C(NCc1ccc(Cl)nc1)c1ccc(/C=C/C(c2cc(Cl)c(F)c(Cl)c2)C(F)(F)F)cc1F (stereo not drawn) [AC65] | 0 to 80% | 50 to 100% | 50 to 100%
O=C(CNC(=O)c1ccc(/C=C/C(c2cc(Cl)c(Cl)c(Cl)c2)C(F)(F)F)cc1Br)NCC(F)(F)F (stereo not drawn) [AC66] | 0 to 80% | 50 to 100% | 50 to 100%
O=C(NC1CSC1)c1ccc(/C=C/C(c2cc(Cl)c(F)c(Cl)c2)C(F)(F)F)cc1F (stereo not drawn) [AC67] | 0 to 80% | 50 to 100% | 50 to 100%
Cc1cc(/C=C/C(c2cc(Cl)c(F)c(Cl)c2)C(F)(F)F)ccc1C(=O)NCC(=O)NCC(F)(F)F (stereo not drawn) [AC69] | 80 to 100% | 50 to 100% | 50 to 100%
COc1cc(/C=C/C(c2cc(Cl)c(F)c(Cl)c2)C(F)(F)F)ccc1C(=O)NC1CSC1 (stereo not drawn) [AC71] | 0 to 80% | 50 to 100% | 50 to 100%
CCc1cc(/C=C/C(c2cc(Cl)c(F)c(Cl)c2)C(F)(F)F)ccc1C(=O)NCc1ccc(Cl)nc1 (stereo not drawn) [AC72] | 0 to 80% | 50 to 100% | 50 to 100%
O=C(NCc1ccc(C(F)(F)F)nc1)c1ccc(/C=C/C(c2cc(Cl)c(Cl)c(Cl)c2)C(F)(F)F)cc1Br (stereo not drawn) [AC75] | 0 to 80% | 50 to 100% | 50 to 100%
Cc1cc(/C=C/C(c2cc(Cl)c(F)c(Cl)c2)C(F)(F)F)ccc1C(=O)NCc1cc(Cl)ccn1 (stereo not drawn) [AC77] | 0 to 80% | 50 to 100% | 50 to 100%
Cc1cc(/C=C/C(c2cc(Cl)c(Cl)c(Cl)c2)C(F)(F)F)ccc1C(=O)NCC(=O)NCC(F)(F)F (stereo not drawn) [AC78] | 80 to 100% | 50 to 100% | 50 to 100%
O=C(CNC(=O)c1ccc(/C=C/C(c2cc(Cl)c(F)c(Cl)c2)C(F)(F)F)cc1Br)NCC(F)(F)F (stereo not drawn) [AC79, (E)-2-Bromo-4-(3-(3,5-dichloro-4-fluorophenyl)-4,4,4-trifluorobut-1-en-1-yl)-N-(2-oxo-2-((2,2,2-trifluoroethyl)amino)ethyl)benzamide] | 80 to 100% | 50 to 100% | 50 to 100%
CCc1cc(/C=C/C(c2cc(Cl)c(F)c(Cl)c2)C(F)(F)F)ccc1C(=O)NCC(=O)NCC(F)(F)F (stereo not drawn) [AC80] | 0 to 80% | 50 to 100% | 50 to 100%
O=C(NC1CS(=O)(=O)C1)c1ccc(/C=C/C(c2cc(Cl)cc(Cl)c2)C(F)(F)F)cc1F (stereo not drawn) [AC83, (E)-4-(3-(3,5-Dichlorophenyl)-4,4,4-trifluorobut-1-en-1-yl)-N-(1,1-dioxidothietan-3-yl)-2-fluorobenzamide] | 0 to 80% | 50 to 100% | 50 to 100%
COc1cc(/C=C/C(c2cc(Cl)c(F)c(Cl)c2)C(F)(F)F)ccc1C(=O)NC1CS(=O)(=O)C1 (stereo not drawn) [AC85] | 0 to 80% | 50 to 100% | 50 to 100%
O=C(NC1C[S+]([O-])C1)c1ccc(/C=C/C(c2cc(Cl)c(F)c(Cl)c2)C(F)(F)F)cc1F (stereo not drawn) [AC87] | 0 to 80% | 50 to 100% | 50 to 100%
Cc1cc(/C=C/C(c2cc(Cl)cc(Cl)c2)C(F)(F)F)ccc1C(=O)NCc1nnc(C2CC2)o1 (stereo not drawn) [AC89, (E)-N-((5-Cyclopropyl-1,3,4-oxadiazol-2-yl)methyl)-4-(3-(3,5-dichlorophenyl)-4,4,4-trifluorobut-1-en-1-yl)-2-methylbenzamide] | 0 to 80% | 50 to 100% | 50 to 100%
O=C(NC1CCN(C(=O)CC(F)(F)F)CC1)c1ccc(/C=C/C(c2cc(Cl)c(Cl)c(Cl)c2)C(F)(F)F)cc1Br (stereo not drawn) [AC104, (E)-2-Bromo-4-(4,4,4-trifluoro-3-(3,4,5-trichlorophenyl)but-1-en-1-yl)-N-(1-(3,3,3-trifluoropropanoyl)piperidin-4-yl)benzamide] | 0 to 80% | 50 to 100% | 50 to 100%
CN1CCC(NC(=O)c2ccc(/C=C/C(c3cc(Cl)c(Cl)c(Cl)c3)C(F)(F)F)cc2Br)CC1 (stereo not drawn) [AC106, (E)-2-Bromo-N-(1-methylpiperidin-4-yl)-4-(4,4,4-trifluoro-3-(3,4,5-trichlorophenyl)but-1-en-1-yl)benzamide] | 0 to 80% | 50 to 100% | 50 to 100%
O=C(CC(F)(F)F)NC1CCCc2cc(/C=C/C(c3cc(Cl)c(Cl)c(Cl)c3)C(F)(F)F)ccc21 (stereo not drawn) [BC5] | 0 to 80% | 50 to 100% | 50 to 100%
O=C(CC(F)(F)F)NC1CCc2cc(/C=C/C(c3cc(Cl)c(F)c(Cl)c3)C(F)(F)F)ccc21 (stereo not drawn) [BC8] | 0 to 80% | 50 to 100% | 50 to 100%
Fc1c(Cl)cc(C(/C=C/c2ccc3c(c2)CCC3NCCC(F)(F)F)C(F)(F)F)cc1Cl (stereo not drawn) [BC10, (E)-5-(3-(3,5-Dichloro-4-fluorophenyl)-4,4,4-trifluorobut-1-en-1-yl)-N-(3,3,3-trifluoropropyl)-2,3-dihydro-1H-inden-1-amine] | 0 to 80% | 50 to 100% | 50 to 100%
O=C(NCc1ccc(/C=C/C(c2cc(Cl)cc(Cl)c2)C(F)(F)F)cc1)C1CC1 (stereo not drawn) [CC2] | 0 to 80% | 50 to 100% | 50 to 100%
CCC(=O)NCc1ccc(/C=C/C(c2cc(Cl)cc(Cl)c2)C(F)(F)F)cc1 (stereo not drawn) [CC4] | 0 to 80% | 0 to 50% | 50 to 100%
O=C(NCc1ccc(/C=C/C(c2cc(Cl)c(Cl)c(Cl)c2)C(F)(F)F)cc1)C1CC1 (stereo not drawn) [CC5] | 0 to 80% | 50 to 100% | 50 to 100%
O=C(CC(F)(F)F)NCc1ccc(/C=C/C(c2cc(Cl)c(Cl)c(Cl)c2)C(F)(F)F)cc1 (stereo not drawn) [CC6] | 0 to 80% | 50 to 100% | 50 to 100%
CC(=O)NCc1ccc(/C=C/C(c2cc(Cl)cc(Cl)c2)C(F)(F)F)cc1Cl (stereo not drawn) [CC7, (E)-N-(2-Chloro-4-(3-(3,5-dichlorophenyl)-4,4,4-trifluorobut-1-en-1-yl)benzyl)acetamide] | 0 to 80% | 50 to 100% | 50 to 100%
O=C(CC(F)(F)F)NCc1ccc(/C=C/C(c2cc(Cl)cc(Cl)c2)C(F)(F)F)cc1Cl (stereo not drawn) [CC9] | 0 to 80% | 50 to 100% | 50 to 100%
O=C(NCc1ccc(/C=C/C(c2cc(Cl)c(Cl)c(Cl)c2)C(F)(F)F)cc1Cl)C1CC1 (stereo not drawn) [CC11] | 0 to 80% | 50 to 100% | 50 to 100%
